{"source": "paper PMC3956373", "about": "“Suppression of type 1 pilus assembly in uropathogenic Escherichia coli by chemical inhibition of subunit polymerization” (Journal of Antimicrobial Chemotherapy, 2013)", "target": "T1, FimH (Escherichia coli, UniProt P08191)", "T1 construct": "with FimC (C-terminal His tag); FimG Nte peptide in the assay", "T1 sequence (P08191 22-300)": "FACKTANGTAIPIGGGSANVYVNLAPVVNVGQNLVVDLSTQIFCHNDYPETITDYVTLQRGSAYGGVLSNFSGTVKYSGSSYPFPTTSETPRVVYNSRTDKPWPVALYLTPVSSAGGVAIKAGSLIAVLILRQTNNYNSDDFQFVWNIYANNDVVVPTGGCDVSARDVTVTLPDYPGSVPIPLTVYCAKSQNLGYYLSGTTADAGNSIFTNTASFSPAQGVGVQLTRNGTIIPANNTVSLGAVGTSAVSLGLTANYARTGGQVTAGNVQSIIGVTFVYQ", "T1 sequence (P31697 37-241, further chain)": "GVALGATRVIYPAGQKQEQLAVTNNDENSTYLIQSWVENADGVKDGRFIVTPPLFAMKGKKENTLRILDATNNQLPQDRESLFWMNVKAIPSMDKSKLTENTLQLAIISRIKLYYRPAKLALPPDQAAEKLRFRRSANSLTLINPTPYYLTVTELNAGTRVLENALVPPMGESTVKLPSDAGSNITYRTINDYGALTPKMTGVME", "T1 sequence (P08190 24-167, further chain)": "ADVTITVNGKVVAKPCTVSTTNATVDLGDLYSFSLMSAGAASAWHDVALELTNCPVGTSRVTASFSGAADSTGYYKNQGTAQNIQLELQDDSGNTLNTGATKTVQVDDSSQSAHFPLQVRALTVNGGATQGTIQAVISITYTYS", "test": "SDS-PAGE donor strand exchange assay with purified FimChis:FimH ([…]) and FimG Nte peptide ([…]), concentration-response", "format": "biochemical", "data": [{"compound": "O=C(CSc1nnc(-c2ccc(S(=O)(=O)N3CCCC3)cc2)o1)Nc1ccc(Cl)cc1", "note": "[AL1, N-(4-chloro-phenyl)-2-{5-[4-(pyrrolidine-1-sulfonyl)-phenyl]-[1,3,4]oxadiazol-2-ylsulfanyl}-acetamide]", "values": [{"measurement": "IC50", "result": 286, "unit": "µM"}]}]}
